Laboratory results taken from the supplement of paper PMC10307832.

Assays:
Assay in all cases: relative viability (nuclei count vs DMSO), 5 days (fraction); higher = more cells survive
NCI-H1563 = test system: NCI-H1563
Summary of the method: (§1)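 Cells from lung cancer lines were seeded into 1536-well plates and, one day later, dosed by pin tool. Treatments were either a single drug or a fixed dose of an anchor drug with five library-drug doses (not always all listed) in √10 steps. After 5 days, nuclei were stained in a one-step fixation (final 0.05% Triton X-100, 1% formaldehyde, 1 ug/ml Hoechst) and counted on 4× images, and relative viability is the treated-to-vehicle nuclei ratio, as the median of duplicate plates.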

201T = test system: 201T
Summary of the method: as §1

SW 1573 = test system: SW 1573
Summary of the method: as §1

NCI-H727 = test system: NCI-H727
Summary of the method: as §1

NCI-H1650 = test system: NCI-H1650
Summary of the method: as §1

H3255 = test system: H3255
Summary of the method: as §1

NCI-H1793 = test system: NCI-H1793
Summary of the method: as §1

LK-2 = test system: LK-2
Summary of the method: as §1

NCI-H2228 = test system: NCI-H2228
Summary of the method: as §1

HCC-44 = test system: HCC-44
Summary of the method: as §1

LC-2-ad = test system: LC-2-ad
Summary of the method: as §1

NCI-H23 = test system: NCI-H23
Summary of the method: as §1

NCI-H596 = test system: NCI-H596
Summary of the method: as §1

PC-14 = test system: PC-14
Summary of the method: as §1

COR-L23 = test system: COR-L23
Summary of the method: as §1

A-427 = test system: A-427
Summary of the method: as §1

LU99A = test system: LU99A
Summary of the method: as §1

NCI-H460 = test system: NCI-H460
Summary of the method: as §1

LCLC-103H = test system: LCLC-103H
Summary of the method: as §1

NCI-H2347 = test system: NCI-H2347
Summary of the method: as §1

LCLC-97TM1 = test system: LCLC-97TM1
Summary of the method: as §1

Compound: COc1cc2nccc(Oc3ccc(NC(=O)Nc4cc(C)on4)c(Cl)c3)c2cc1OC [Tivozanib] + CS(=O)(=O)N1CCN(Cc2cc3nc(-c4cccc5[nH]ncc45)nc(N4CCOCC4)c3s2)CC1 [Pictilisib] (partner 1 µM)
- relative viability (NCI-H1563; first compound 0.005 µM): 0.668
- relative viability (NCI-H1563; first compound 0.01581 µM): 0.729
- relative viability (NCI-H1563; first compound 0.05 µM): 0.622
- relative viability (NCI-H1563; first compound 0.1581 µM): 0.699
- relative viability (NCI-H1563; first compound 0.5 µM): 0.581
- relative viability (201T; first compound 0.005 µM): 0.377
- relative viability (201T; first compound 0.01581 µM): 0.69
- relative viability (201T; first compound 0.05 µM): 0.686
- relative viability (201T; first compound 0.1581 µM): 0.588
- relative viability (201T; first compound 0.5 µM): 0.632
- relative viability (SW 1573; first compound 0.005 µM): 0.448
- relative viability (SW 1573; first compound 0.01581 µM): 0.479
- relative viability (SW 1573; first compound 0.05 µM): 0.505
- relative viability (SW 1573; first compound 0.1581 µM): 0.346
- relative viability (SW 1573; first compound 0.5 µM): 0.406
- relative viability (NCI-H727; first compound 0.005 µM): 0.349
- relative viability (NCI-H727; first compound 0.01581 µM): 0.56
- relative viability (NCI-H727; first compound 0.05 µM): 0.351
- relative viability (NCI-H727; first compound 0.5 µM): 0.398
- relative viability (NCI-H1650; first compound 0.005 µM): 0.561
- relative viability (NCI-H1650; first compound 0.01581 µM): 0.594
- relative viability (NCI-H1650; first compound 0.05 µM): 0.621
- relative viability (NCI-H1650; first compound 0.1581 µM): 0.558
- relative viability (NCI-H1650; first compound 0.5 µM): 0.498
- relative viability (H3255; first compound 0.005 µM): 0.451
- relative viability (H3255; first compound 0.01581 µM): 0.435
- relative viability (H3255; first compound 0.05 µM): 0.538
- relative viability (H3255; first compound 0.1581 µM): 0.449
- relative viability (H3255; first compound 0.5 µM): 0.421
- relative viability (NCI-H1793; first compound 0.005 µM): 0.222
- relative viability (NCI-H1793; first compound 0.01581 µM): 0.257
- relative viability (NCI-H1793; first compound 0.05 µM): 0.364
- relative viability (NCI-H1793; first compound 0.5 µM): 0.292
- relative viability (LK-2; first compound 0.005 µM): 0.574
- relative viability (LK-2; first compound 0.01581 µM): 0.472
- relative viability (LK-2; first compound 0.05 µM): 0.6
- relative viability (LK-2; first compound 0.1581 µM): 0.459
- relative viability (LK-2; first compound 0.5 µM): 0.909
- relative viability (NCI-H2228; first compound 0.005 µM): 0.402
- relative viability (NCI-H2228; first compound 0.01581 µM): 0.421
- relative viability (NCI-H2228; first compound 0.05 µM): 0.528
- relative viability (NCI-H2228; first compound 0.1581 µM): 0.297
- relative viability (NCI-H2228; first compound 0.5 µM): 0.514
- relative viability (HCC-44; first compound 0.005 µM): 0.617
- relative viability (HCC-44; first compound 0.01581 µM): 0.471
- relative viability (HCC-44; first compound 0.05 µM): 0.718
- relative viability (HCC-44; first compound 0.1581 µM): 0.488
- relative viability (HCC-44; first compound 0.5 µM): 0.654
- relative viability (LC-2-ad; first compound 0.005 µM): 0.417
- relative viability (LC-2-ad; first compound 0.01581 µM): 0.353
- relative viability (LC-2-ad; first compound 0.05 µM): 0.263
- relative viability (LC-2-ad; first compound 0.1581 µM): 0.204
- relative viability (LC-2-ad; first compound 0.5 µM): 0.159
- relative viability (NCI-H23; first compound 0.005 µM): 0.443
- relative viability (NCI-H23; first compound 0.01581 µM): 0.471
- relative viability (NCI-H23; first compound 0.05 µM): 0.409
- relative viability (NCI-H23; first compound 0.1581 µM): 0.319
- relative viability (NCI-H23; first compound 0.5 µM): 0.49
- relative viability (NCI-H596; first compound 0.005 µM): 0.28
- relative viability (NCI-H596; first compound 0.01581 µM): 0.364
- relative viability (NCI-H596; first compound 0.05 µM): 0.427
- relative viability (NCI-H596; first compound 0.1581 µM): 0.411
- relative viability (NCI-H596; first compound 0.5 µM): 0.326
- relative viability (PC-14; first compound 0.005 µM): 0.631
- relative viability (PC-14; first compound 0.01581 µM): 0.604
- relative viability (PC-14; first compound 0.05 µM): 0.693
- relative viability (PC-14; first compound 0.1581 µM): 0.51
- relative viability (PC-14; first compound 0.5 µM): 0.635
- relative viability (COR-L23; first compound 0.005 µM): 0.733
- relative viability (COR-L23; first compound 0.01581 µM): 0.74
- relative viability (COR-L23; first compound 0.05 µM): 0.917
- relative viability (COR-L23; first compound 0.1581 µM): 0.575
- relative viability (COR-L23; first compound 0.5 µM): 0.565
- relative viability (A-427; first compound 0.005 µM): 0.656
- relative viability (A-427; first compound 0.01581 µM): 0.746
- relative viability (A-427; first compound 0.05 µM): 0.705
- relative viability (A-427; first compound 0.1581 µM): 0.511
- relative viability (A-427; first compound 0.5 µM): 0.71
- relative viability (LU99A; first compound 0.005 µM): 0.315
- relative viability (LU99A; first compound 0.01581 µM): 0.339
- relative viability (LU99A; first compound 0.05 µM): 0.348
- relative viability (LU99A; first compound 0.5 µM): 0.317
- relative viability (NCI-H460; first compound 0.005 µM): 0.337
- relative viability (NCI-H460; first compound 0.01581 µM): 0.296
- relative viability (NCI-H460; first compound 0.05 µM): 0.449
- relative viability (NCI-H460; first compound 0.1581 µM): 0.253
- relative viability (NCI-H460; first compound 0.5 µM): 0.36
- relative viability (LCLC-103H; first compound 0.005 µM): 0.58
- relative viability (LCLC-103H; first compound 0.01581 µM): 0.735
- relative viability (LCLC-103H; first compound 0.05 µM): 0.604
- relative viability (LCLC-103H; first compound 0.1581 µM): 0.602
- relative viability (LCLC-103H; first compound 0.5 µM): 0.591
- relative viability (NCI-H2347; first compound 0.005 µM): 0.599
- relative viability (NCI-H2347; first compound 0.01581 µM): 0.53
- relative viability (NCI-H2347; first compound 0.05 µM): 0.846
- relative viability (NCI-H2347; first compound 0.1581 µM): 0.344
- relative viability (NCI-H2347; first compound 0.5 µM): 0.727
- relative viability (LCLC-97TM1; first compound 0.005 µM): 0.206
- relative viability (LCLC-97TM1; first compound 0.01581 µM): 0.23
- relative viability (LCLC-97TM1; first compound 0.1581 µM): 0.119
- relative viability (LCLC-97TM1; first compound 0.5 µM): 0.164
